This note sets out measurements from US12102685B2, “Immodulator peptides covalently modified with small molecules” (priority 2020, dated 2024).

Experiment [1] is described as follows: Iron binding of separately labeled peptides (x2E e). The note with it: each peptide labeled separately; IM3 = 100; ferric iron. As to the method:
(§1) Experiments were conducted by the procedure described above. Ferric iron-charged NTA-coated 96-well plates were used as described. 1 ug/well immodulator peptide complexed to Alexa-488-labeled streptavidin in PBS buffer was added (60 min at room temperature). The plate was washed and counted in a standard fluorometer (excitation/emission: 485/525 nm). The results (fluorescence) show improved iron-binding by the three peptides extended C-terminally by the AVD, (dA)VD, and FVS tripeptides. **p<0.01 vs IM3 control IM3: 200±29; IM4: 45±37**; IM5: 130±77; IM3AVD: 434±29**; IM3dAVD: 418±28**; IM3FVS: 371±33** • (c) Competition assay. The same procedure was used as the preceding experiment, except that 375 ng/well labeled IM3 peptide was used, plus 10× of the indicated unlabeled peptide. ‘No competing peptide’ control value was set to 100. *p<0.05 vs “no peptide” control Competing Peptide/Fluorescence • None: 100±38; IM4: 125±26; IM3: 63±27*; IM5: 40±14*; IM3AVD: 10±28* • (d) Competition assay. The same procedure was used as the preceding experiment, except that labeled IM3AVD peptide was used. **p<0.01 vs “no competing peptide” control • None: 100±9; IM4: 144±44; IM3: 35±16**; IM5: 30±19**; IM3AVD: 9±19** • (e) The same procedure was used as the preceding experiment, except that each peptide was labeled with Alexa-488-labeled streptavidin in PBS buffer and used separately. Binding to IM3 was set to =100. *p<0.05, **p<0.01 vs IM3 control. (Labeled Peptide/Fluorescence) IM1: 1.8±0.4**; IM2: 3.0±1.8**; IM3: 100.0±16.8; IM4: 7.2±1.7*; IM5: 86.7±6.4; IM6: 85.9±14.9; IM3AVD:137.7±11.8*; IM3dAVD:147.4±22.9*; IM3FVS: 101.5±10.5.

A short description of experiment [2]: Strength of binding to iron, plate assay (x2E b). The note with it: 1 ug/well peptide complexed to Alexa-488-streptavidin; ferric iron. The procedure: Immodulator peptides were extended C-terminally by three amino acids, to include a valine residue that is highly conserved in the “thyroglobulin type 1 motif”. The reasoning behind this attempt is that a longer conserved sequence might lead to a tighter fold overall, which might in turn result in increased metal-binding avidity. • (b) Strength of binding to iron was evaluated by plate assay.
as §1

The next experiment has as its system NF-kappa-B (NFkB). The experiment can be described thus: THP1-Dual monocyte reporter, NF-kappa-B readout (x4A). The format is cell-based. The note with it: no peptide. The procedure: (§2) Immune modulation functions of immodulator peptides were measured using the monocyte reporter cell line THP1-Dual (Invivogen, San Diego, CA), which provides convenient readouts for STING and NF-kappa-B pathways. Optionally, succinic acid, cytokine and chemokine production were also measured. THP1-Dual cell line was obtained from Invivogen. Cells were grown in a T-75 flask in RPMI Medium containing 20% fetal bovine serum, blasticidin ([…]), zeocin ([…]) and penicillin-streptomycin at 37° C. in a humidified, 5% CO2 incubator. Cells ([…], 8,000 cells/well) were plated in a 96-well plate and incubated overnight at 37 °C in a humidified, 5% CO2 incubator. Next day, […] of compounds were added (quadruplicate wells). After 24 hour incubation with the compound, supernatants were harvested and stored at 4° C. prior to assay.
(§3) Each cell supernatant was assayed in quadruplicate. 20 uL of supernatant was used to measure NF-kappa-B (NFkB) and
(§4) STING activity using reagents QuantiBlu and QuantiLuc respectively, according to the manufacturer's recommendations (Invivogen, San Diego, CA). Succinic acid was measured by using a kit from Megazyme Inc (Cambridge, MA). Control value of activity was set to 100 in each assay. […] PAM3C=25 ng/ml PAM3CSK4 (TLR1/2 inducer); Poly(I:C)=10 ug/ml (TLR3 inducer); PAM2C=25 ng/ml PAM2CSK4 (TLR2/6 inducer); KIN14=4 uM KIN-1400 (RIG-I inducer); cytB=1 uM cytosporone B (Nur77 inducer); C-178=1 uM STING inhibitor; NFkBi=50 ug/ml NFkB inhibitor peptide; SB2021=10 uM p38MAPK inhibitor; *p<0.05, **p<0.01 vs IM3 control; #p<0.01 vs “no inducer” control; SUCC=succinic acid; nd=not done; Peptide was added to cells at 400 nM.
(§5) Peptides were added to cells at 400 nM. […]

A further experiment deals with THP1-Dual monocytes. Briefly: Succinic acid in THP1-Dual supernatant (x4A). In kind it is cell-based. The note with it: no peptide. As to the method: as §2, §4, §5
In another experiment the test system is A375 cells. Briefly: A375 cell viability, CellTiterGlo (x10A). In kind it is cell-based. Conditions: 72 hours. As to the method:
(§6) Immune modulation functions of immodulator peptides have great potential untility in the field of cancer. A375 cell line was obtained from American Type Culture Collection (ATCC). They were grown in a T-75 flask in DMEM Medium containing 10% fetal bovine serum and penicillin-streptomycin at 37° C. in a humidified, 5% CO2 incubator. Cells ([…], 2,000 cells/well) were plated in a 96-well plate and incubated overnight at 37° C. in a humidified, 5% CO2 incubator. Next day, […] of compounds were added (quadruplicate wells). After 72 hour incubation with the compound, cell viability was measured in a luminometer after the addition of […] CellTiterGlo reagent (Promega Inc, Madison, WI) as recommended by the manufacturer.
Experiment x10A. Anti-cancer activity of immodulator peptides on A375 cells. A 96-well plate was seeded with 2,000 A375 cells per well in DMEM medium containing 10% FBS and PenStrep. After 24 hrs at 37 deg C., compounds and peptides were added (each treatment done in quadruplicate). After a further 72 hours incubation, 100 uL/well of CTG assay reagent purchased from Promega Inc. (Madison, WI) was added. Plate was read after 10 minutes, as recommended by the manufacturer. Peptides were added at 2 uM. The results of this experiment are shown below, expressed as percent survival ofA375 cells.

Another experiment concerns STING. Briefly: THP1-Dual monocyte reporter, STING readout (x4A). In kind it is cell-based. Conditions: no peptide. The procedure:
as §2, §3, §4, §5

The test system of experiment [3] is COL1 in HFF-1 dermal fibroblasts. The experiment can be described thus: Collagen-1 ELISA in HFF-1 dermal fibroblasts (x11A). The format is cell-based. Conditions: peptide 2 uM, 72 hour; control (buffer) = 100. The procedure:
as §6, with “have” for “have great”, “cosmetics. HFF-1” for “cancer. A375”, “Cells” for “They”, “compound, supernatants were collected for Collagen-1 ELISA assay and” for “compound,”
Collagen stimulating activity of immodulator peptides in HFF-1 dermal fibroblasts. Peptides were added to cells at 2 uM. COL1 immunoreactivity was measured in the supernatants of cultured cells by ELISA using a rabbit monoclonal anti-COL1 primary antibody (Abcam, Cambridge, MA). Control (buffer) value of immunoreactivity was set to 100.
For orientation: ELISA stands for enzyme-linked immunosorbent assay.

A short description of experiment [4]: Competition binding assay to metal-charged NTA-coated plates (x2B b). The note with it: PBS on calcium = 100. The procedure: NTA-metal-affinity fluorescence assay was performed using 96-well NTA-metal-coated plates readily available from commercial sources such as Qiagen (Germantown, MD). NTA was charged with ferrous or ferric iron, zinc, copper, calcium, vanadium, ruthenium, cobalt, titanium, manganese or other metals. 400 ng of FITC-labeled immodulator peptide (or biotinylated immodulator peptide complexed to Alexa-488-labeled streptavidin) in PBS buffer was added per plate. After incubation at room temperature for 60 minutes, excess peptide was washed off and peptide was detected by measuring fluorescence (excitation 490 nm, emmission 525 nm) in a fluorometer. • (a) Using FITC-labeled IM3 peptide (1 ug/well) in the fluorescent binding assay: • EDTA-treated control: 2,251±1,186 • Ferrous iron: 170,441±11,264 (p<0.001)* • Copper: 13,644±5566 (p<0.05)* • Calcium: 48,822±11,990 (p<0.01)* • *p values are relative to EDTA-treated control • (b) Competition binding assay to ferrous iron, calcium, copper and zinc-charged NTA-coated plates using FITC-labeled IM3 peptide (0.5 uM) and 8× (4 uM) unlabelled competitor peptides IM3N1, IM3N2 (*all comparisons to PBS control are p<0.01); # fluorescent value of binding to […] was set at 100.

[5] abbreviates: KIN1400 alone, IM3 + KIN1400 = 100.
The mark [6] stands for this setting: 25 ng/ml PAM2CSK4 alone, IM3 + PAM2C = 100.
Setting [7] is: 25 ng/ml PAM3CSK4 alone, control = 100.

Marks after values point to notes of the source that are not given here. Square brackets hold non-standard residues; d marks the D form. Ends that are not written are not given here. Peptide text beside a SMILES is read from it. * marks the point of attachment. RG108 = O=C1c2ccccc2C(=O)N1[C@@H](Cc1c[nH]c2ccccc12)C(=O)*

For “KKGFYKKKQCRPSKGRKRGFCW(dA)VD (KKGFYKKKQCRPSKGRKRGFCW[dA]VD; cysteine pairing not given here) [IM3dAVD, IM3 extended C-terminally by (dA)VD]”, the “fluorescence of labeled peptide” value in experiment [1] came out at 147.4±22.9. In addition, in experiment [2], the “fluorescence (iron binding)” value is listed as 418±28.

In the case of `Oc1c(C(Nc2nc3ccccc3s2)c2ccc(OC(F)F)cc2)ccc2cccnc12` (centres unmarked) [KIN1400, KIN-1400, reference compound], the NFkB in the experiment with NF-kappa-B (NFkB) (KIN1400 (RIG-I agonist) alone, IM3 + KIN1400 = 100) is 90.1. In the experiment with THP1-Dual monocytes (setting [5]), the SUCC is listed as 100.1. Also, in the experiment with A375 cells (Kin1400 4 uM alone, no peptide), the “percent survival of A375 cells” value was found to be 100.7%. The STING in the experiment on STING (setting [5]) is reported as 84.3**.

For PAM2CSK4 [reference compound], the NFkB in the experiment with NF-kappa-B (NFkB) (setting [6]) was 118.7**. In addition, the SUCC with THP1-Dual monocytes (setting [6]) is 121.5*. The STING in the experiment with STING (setting [6]) is given as 144.5**.

For the compound FNSYELGSLKKGFYKKKQCRPSKGRKRGFCW [IM3K8], the “COL1 immunoreactivity in supernatant” value in experiment [3] amounted to 98.

With “AFNSYELGSKGFYKKKQCRPSKGRKRGFCWAVDKY [IM3K9c]”, the “COL1 immunoreactivity in supernatant” value in experiment [3] is 158**.

For the compound “(rg108)-KKGFYKKKQCRPSKGRKRGFCW (RG108-KKGFYKKKQCRPSKGRKRGFCW; cysteine pairing not given here) [IM3rg8, IM3 N-terminally conjugated with RG108]”, the “percent survival of A375 cells” value is given as 105.8% in the experiment on A375 cells (peptide 2 uM + Kin1400 4 uM (RIG-I agonist)) and 89.9** percent in the experiment on A375 cells (peptide 2 uM, Buffer).

As for `CC(C)[C@H](NC(=O)[C@H](Cc1ccccc1)NC(=O)[C@H](Cc1c[nH]c2ccccc12)NC(=O)[C@H](CS)NC(=O)[C@H](Cc1ccccc1)NC(=O)CNC(=O)[C@H](CCCNC(=N)N)NC(=O)[C@H](CCCCN)NC(=O)[C@H](CCCNC(=N)N)NC(=O)CNC(=O)[C@H](CCCCN)NC(=O)[C@H](CO)NC(=O)[C@@H]1CCCN1C(=O)[C@H](CCCNC(=N)N)NC(=O)[C@H](CS)NC(=O)[C@H](CCC(N)=O)NC(=O)[C@H](CCCCN)NC(=O)[C@H](CCCCN)NC(=O)[C@H](CCCCN)NC(=O)[C@H](Cc1ccc(O)cc1)NC(=O)[C@H](Cc1ccccc1)NC(=O)CNC(=O)[C@H](CCCCN)NC(=O)[C@@H](N)CCCCN)C(=O)N[C@@H](CO)C(=O)O` [IM3FVS] (H-KKGFYKKKQCRPSKGRKRGFCWFVS-OH; N-terminus and C-terminus assumed), the “fluorescence of labeled peptide” value in experiment [1] came to 101.5±10.5. Besides, the “fluorescence (iron binding)” value in experiment [2] was found to be 371±33.

With “TGPSESYLQLEELVKQVVSKGFYKKKQCRPSKGRKRGFCW [IM3N2]”, the “FITC-IM3 fluorescence with competitor” value is 12.9 ± 1.2* in experiment [4] (Calcium, 0.5 uM FITC-IM3, 8x (4 uM) unlabelled competitor); 5.1 ± 1.0* in experiment [4] (Copper, 8x (4 uM) unlabelled competitor); 25.2 ± 9.5* in experiment [4] (Ferrous iron, 8x (4 uM) unlabelled competitor); 13.4 ± 1.6* in experiment [4] (Zinc, 8x (4 uM) unlabelled competitor).

Turning to PAM3CSK4 [reference compound], in the experiment with NF-kappa-B (NFkB) (setting [7]), the NFkB is listed as 326 #. Also, the STING in the experiment with STING (setting [7]) was 342 #.

As to “AFNSYELGSKKGFYKKKQCRPSKGRKRGFCW [IM3K9.1]”, the “COL1 immunoreactivity in supernatant” value in experiment [3] was 156**.

For AFNSYELGSKGFYKKKQCRPSKGRKRGFCW [IM3K9], in experiment [3], the “COL1 immunoreactivity in supernatant” value was 155**.
